Measurements reported in patent publication US20050118381A1, “Diimonium salt mixtures, aminium salts mixtures and use thereof” (priority 2002, published 2005).

How the values were obtained:
Format in all cases: physicochemical
[1] = Heat resistance stability test of near-infrared absorption filter coat film
Description: (§1) 1.2 parts of compound No. 1a (Sample 1X), No. 6a (Sample 2X) and No. 15a (Sample 3X) was each dissolved in 18.8 parts of MEK. To the solution was added 80 parts of a resin solution obtained by dissolving 25 parts of an acrylic resin (Dianal BR-80, available from Mitsubishi Rayon Co., Ltd.) in 75 parts of MEK to prepare a coating solution. The coating solution was applied to a polyester film in a thickness of 2 to 4 μm and dried at 80° C. to obtain the near-infrared absorption filter of the present invention.
(§2) The obtained coat film was subjected to a heat resistance stability test in a hot air dryer at 80° C. for a predetermined time and a moisture heat resistance stability test in a temperature and humidity controlled apparatus under conditions of 60° C. and 95% RH for a predetermined time. In addition, Samples 1X and 2X were subjected to a lightfastness test using a weatherometer (Ci4000, made by Atlas Electric Devices Co.) under conditions of light source output: 0.36 W/m^2, bath temperature: 24° C., black panel temperature: 40° C. and humidity: 30% RH for 50 hours. After the tests, the color of the film was measured by an ultraviolet/visible light spectrophotometer (UV-2100, made by Shimadzu Corporation) to calculate L*, a*, b* values and stability was evaluated from the variation of the b* value. The results of heat resistance test are shown in Table 9, the results of the moisture heat resistance test are shown in Table 10 and the results of the lightfastness test are shown in Table 11.
(§3) Coat films were prepared and evaluated in the same manner except that hexafluoroantimonate of tetrakis{p-di(n-butyl)aminophenyl}phenylenediimonium (Comparative Sample 1X) and hexafluoroantimonate of tetrakis{p-di(3-cyanopropyl)aminophenyl}phenylenediimonium (Comparative Sample 2X) were used instead of the above compounds.

[2] = Moisture heat resistance stability test of near-infrared absorption filter coat film; conditions: acrylic resin coat film
Description: as §1, §2, §3

[3] = Lightfastness test of near-infrared absorption filter coat film; conditions: acrylic resin coat film
Description: as §1
The obtained coat film was subjected to a heat resistance stability test in a hot air dryer at 80° C. for a predetermined time and a moisture heat resistance stability test in a temperature and humidity controlled apparatus under conditions of 60° C. and 95% RH for a predetermined time. […] After the tests, the color of the film was measured by an ultraviolet/visible light spectrophotometer (UV-2100, made by Shimadzu Corporation) to calculate L*, a*, b* values and stability was evaluated from the variation of the b* value. […]
as §3

[4] = Lightfastness test of dye film containing diimonium salt compound
Description: (§4) 0.3 part of cyanine dye (OM-57) was dissolved in 15 parts of tetrafluoropropanol and 0.04 part of compound No. 2a was added to the solution to prepare coating. The obtained coating was spin coated on a polycarbonate substrate to prepare a dye film (Sample 1Y). The obtained dye film was subjected to a lightfastness test using a weatherometer (Ci4000, made by Atlas Electric Devices Co.) under conditions of light source output: 0.36 W/m^2, bath temperature: 24° C., black panel temperature: 40° C. and humidity: 30% RH for 50 hours, by applying light from the substrate side. Then the residual ratio of the cyanine dye was measured by a spectrophotometer.
Further, dye films were prepared and evaluated in the same manner except that compounds of No. 3a (Sample 2Y), No. 7a (Sample 3Y) and No. 10a (Sample 4Y), compounds of No. 12a (Sample 5Y) and No. 13a (Sample 6Y) and compound No. 19a (Sample 7Y) were used instead of compound No. 2a, and the results are shown in Table 12.
For comparison, a dye film was prepared and evaluated in the same manner except that hexafluoroantimonate of tetrakis{p-di(n-butyl)aminophenyl}phenylenediimonium (Comparative Sample 1Y) was used instead of compound No. 2a.

[5] = Lightfastness test of dye film containing aminium salt compound
Description: as §4, with “2b” for “2a”, “1Z).” for “1Y).”, “150” for “50”
Further, dye films were prepared and evaluated in the same manner except that compounds of No. 3b (Sample 2Z), No. 4b (Sample 3Z) and No. 7b (Sample 4Z) and compound No. 12b (Sample 5Z) were used instead of compound No. 2b, and the results are shown in Table 13.
For comparison, a dye film was prepared and evaluated in the same manner except that hexafluoroantimonate of tetrakis{p-di(n-butyl)aminophenyl}phenylenediimonium (Comparative Sample 1Z) was used instead of compound No. 2b.

[6] = Solubility test of aminium salt compound
Description: Solubility of Compounds No. 1b, No. 3b, No. 4b, No. 6b, No. 7b, No. 12b, No. 13b, No. 14b and No. 15b obtained in the above Examples in diacetone alcohol (DAA), methyl ethyl ketone (MEK), tetrahydrofuran (THF) and methylcellosolve was measured. Measurement of solubility was conducted in the same manner except that hexafluoroantimonate of tetrakis{p-di(3-cyanopropyl)aminophenyl}phenyleneaminium (Comparative Sample 2) and hexafluorophosphate thereof (Comparative Sample 3) were used instead of the above compounds.

[7] = Solubility test of diimonium salt compound
Description: Solubility of compounds No. 1a, No. 3a, No. 6a, No. 2a, No. 7a, No. 13a and No. 12a obtained in the above Examples in diacetone alcohol (DAA), methyl ethyl ketone (MEK) and cyclohexanone was measured. Measurement of solubility was conducted in the same manner except that hexafluoroantimonate of tetrakis{p-di(3-cyanopropyl)aminophenyl}phenylenediimonium (Comparative Sample 1) was used instead of the above compounds.

[8] = dye film: 0.3 part OM-57 + 0.04 part compound on polycarbonate, before irradiation

With `CCCCN(CCCC)c1ccc([N+](=C2C=CC(=[N+](c3ccc(N(CCCC)CCCC)cc3)c3ccc(N(CCCC)CCCC)cc3)C=C2)c2ccc(N(CCCC)CCCC)cc2)cc1.[F][Sb-]([F])([F])([F])([F])[F].[F][Sb-]([F])([F])([F])([F])[F]` [Comparative Sample 1X, hexafluoroantimonate of tetrakis{p-di(n-butyl)aminophenyl}phenylenediimonium] the “b* value initial stage” value ([1]; acrylic resin coat film on polyester film, before hot air dryer 80° C.) was 2.85, the “b* value after 4 days” value ([1]; acrylic resin coat film, hot air dryer 80° C., 4 days) was 3.65 and the “b* value after 7 days” value ([1]; acrylic resin coat film, hot air dryer 80° C., 7 days) was 3.93. For the same compound, the “b* value after 14 days” value ([1]; acrylic resin coat film, hot air dryer 80° C., 14 days) was 4.30, the “b* value after 4 days” value ([2]; 60° C. and 95% RH, 4 days) was 4.23 and the “b* value after 7 days” value ([2]; 60° C. and 95% RH, 7 days) was 4.69. The “b* value after 14 days” value ([2]; 60° C. and 95% RH, 14 days) was 5.55, the “b* value initial stage” value ([2]; before 60° C. and 95% RH) was 2.85 and the “b* value initial stage” value ([3]; before weatherometer) was 2.85. For the same compound, the “b* value after 50 hours” value ([3]; weatherometer 0.36 W/m^2, 24° C., 30% RH, 50 hours) was 6.49, the “residual ratio of cyanine dye initial stage” value [4, 8] was 100% and the “residual ratio of cyanine dye after 50 hours” value ([4]; dye film: 0.3 part OM-57 + 0.04 part compound, weatherometer 0.36 W/m^2, 50 hours) was 69%. For the same compound, the “residual ratio of cyanine dye initial stage” value [5, 8] was 100% and the “residual ratio of cyanine dye after 150 hours” value ([5]; dye film: 0.3 part OM-57 + 0.04 part compound, weatherometer 0.36 W/m^2, 150 hours) was 29%.
In the case of “hexafluoroantimonate of tetrakis{p-di(3-cyanopropyl)aminophenyl}phenyleneaminium [Comparative Sample 2]”, the “solubility DAA” value ([6]; in diacetone alcohol (DAA)) is reported as 1.2 wt %, the “solubility MEK” value ([6]; in methyl ethyl ketone (MEK)) is reported as 1.7 wt % and the “solubility THF” value ([6]; in tetrahydrofuran (THF)) is reported as “insoluble”.
In the case of “hexafluoroantimonate of tetrakis{p-di(3-cyanopropyl)aminophenyl}phenylenediimonium [Comparative Sample 1]”, the solubility cyclohexane ([7]; column head cyclohexane (text: cyclohexanone)) is reported as “insoluble”, the “solubility DAA” value ([7]; in diacetone alcohol (DAA)) is reported as “insoluble” and the “solubility MEK” value ([7]; in methyl ethyl ketone (MEK)) is reported as “insoluble”. The “solubility in MEK (film preparation)” value ([1]; 1.2 parts in 18.8 parts of MEK, impossible to prepare a film) was “poor”.
